Measured values from patent US20250268967A1, “NUTRACEUTICAL COMPOUNDS USEFUL IN THE TREATMENT OF CORONAVIRUS DISEASE” (priority 2020, published 2025).
Read-outs that look alike come from different tables or passages of the source.

Assays:
SARS-CoV-2 [1] = test: In vitro antiviral immunostaining assay in Vero E6 cells
SARS-CoV-2 [2] = test: In vitro antiviral immunostaining assay in Calu-3 cells; format: cell-based
SARS-CoV-2 [3] = test: In vitro antiviral assay, VeroE6 cells and Calu3 cells (cell line not separated in the statement); settings: for inhibition of the SARS-CoV-2 virus: cell line not specified (FIG. 2, FIG. 6)
[4] = molecular target: T1, α-globulin (vitamin D-Binding Protein [DBP]) (Homo sapiens, UniProt P02774); settings: binds weakly to α-globulin (DBP) after absorption via chylomicrons; cited from earlier work
T1 sequence (P02774 17-474): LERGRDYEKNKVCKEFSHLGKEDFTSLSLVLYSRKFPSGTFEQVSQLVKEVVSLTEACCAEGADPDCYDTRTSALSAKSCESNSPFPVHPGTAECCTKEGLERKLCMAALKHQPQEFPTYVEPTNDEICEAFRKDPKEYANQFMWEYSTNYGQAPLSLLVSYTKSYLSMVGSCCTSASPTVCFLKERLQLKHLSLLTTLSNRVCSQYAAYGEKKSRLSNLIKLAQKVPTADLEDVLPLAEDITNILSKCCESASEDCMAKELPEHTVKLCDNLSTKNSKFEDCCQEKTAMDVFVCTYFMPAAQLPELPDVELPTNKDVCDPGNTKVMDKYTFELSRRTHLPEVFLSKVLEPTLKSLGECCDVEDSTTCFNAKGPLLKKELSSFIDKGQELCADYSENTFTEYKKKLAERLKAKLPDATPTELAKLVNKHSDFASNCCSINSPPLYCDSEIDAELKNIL

[5] = infected patients, 60 mg daily for four months; in words; cited from earlier work
[6] = from three publications; read-out: cytotoxicity (CC50); cited from earlier work
COVID-19 protease = COVID-19 protease (Severe acute respiratory syndrome coronavirus 2, UniProt P0DTD1); settings: molecular docking, in words; cited from earlier work
Calu-3 cells = settings: in words
in vitro = settings: human
SARS-CoV-2 [7] = test: microbe, parasite or virus in culture; format: cell-based

C=C1CC[C@H](O)C/C1=C/C=C1\CCC[C@]2(C)[C@@H]([C@H](C)CCCC(C)C)CC[C@@H]12 [Vitamin D3, cholecalciferol]
EC100 (SARS-CoV-2 [1]; Vero E 6 cells, SARS-CoV-2, in words): Achieved | IC50 (SARS-CoV-2 [1]; VeroE6 cells, FIG. 2): ~33.5 µM | IC50 (SARS-CoV-2 [2]; Severe acute respiratory syndrome coronavirus 2, Calu-3): ~22.3 µM | inhibition of the SARS-CoV-2 virus (SARS-CoV-2 [3]): about 100% | protein binding [4]: 50-80%

CC1=C(/C=C/C(C)=C/C=C/C(C)=C/C=C/C=C(C)/C=C/C=C(C)/C=C/C2=C(C)CCCC2(C)C)C(C)(C)CCC1 [Beta Carotene, Beta-carotene]
clinical toxicity [5]: No clinical toxicity was observed

[Zn] [Zinc]
cytotoxicity, as measured by cell viability (SARS-CoV-2 [3]; FIG. 6, in words): not observed | inhibition of the SARS-CoV-2 virus (SARS-CoV-2 [3]): about 75%

CCC(CC)COC(=O)[C@H](C)N[P@](=O)(OC[C@H]1O[C@@](C#N)(c2ccc3c(N)ncnn23)[C@H](O)[C@@H]1O)Oc1ccccc1 [Remdesivir]
CC50 [6]: > 100 µM

C[C@@H]1C(=O)O[C@H]2C[C@@]34[C@H]5C[C@@H](C(C)(C)C)[C@]36[C@@H](OC(=O)[C@@H]6O)O[C@@]4(C(=O)O5)[C@]21O [Ginkgolide A]
predicted binding affinity to the COVID-19 protease (COVID-19 protease): high binding affinity

CC(C)=CCC[C@](C)(O)[C@@H]1CC=C(C)CC1 [Levomenol, α-(−)-bisabolol]
cytotoxicity, as measured by inhibition of cell viability (Calu-3 cells): not observed | CC50 (in vitro): 3 µM | selectivity index (SI) (SARS-CoV-2 [7]; Calu-3 cells, from CC50 and EC50): 26.1 | EC50 (SARS-CoV-2 [7]; Severe acute respiratory syndrome coronavirus 2, Calu-3 cells infected with SARS-CoV-2, FIG. 4, read-out: EC50 (antiviral activity against SARS-CoV-2)): 0.115 µM | inhibition of the virus (SARS-CoV-2 [2]; Calu-3 cells infected with SARS-CoV-2, FIG. 3): about 60%
